Consider twelve molecules from patent publication US10421768B2, “Method of biotransformation of benzopyrone compounds into the corresponding phosphate-conjugated derivatives” (National Taiwan University, priority 2016, dated 2019).

The conditions of series [1]: cited from earlier work; for water solubility relative to aglyconic form of isoflavones: derivatives reported in several studies; for solubility: in water, stated in text without method; for solubility in water (in words): qualitative statement (b7: according to Merck Index).
Series [2] can be described thus: Solubility of isoflavone phosphate conjugates and aglycones in DI water (25° C.). To be noted: for solubility relative to genistein and daidzein: 25° C. water, phosphate vs aglycone; for Solubility enhancement ratio: phosphate conjugate vs aglycone. It counts as physicochemical. An excerpt: This can increase the application of isoflavones in pharmaceuticals, food, and cosmetics.

[3] abbreviates: DI water, 25° C., read-out: Water solubility.

In brackets after ≈: the same amount, converted by molar mass. Like-named read-outs stand apart in the source and are kept apart here.

Consider `O=c1c(-c2ccc(O)cc2O)coc2cc(O)cc(O)c12` [2′-hydroxy genistein], for which the “water solubility relative to aglyconic form of isoflavones” value in series [1] is “higher water solubility”.
On to `O=c1c(-c2ccc(O)cc2)coc2cc(O)c(O)c(O)c12` [6-hydroxy genistein], for which the “water solubility relative to aglyconic form of isoflavones” value in series [1] is recorded as “higher water solubility”.
In the case of `O=c1c(-c2ccc(O)cc2)coc2c(O)c(O)cc(O)c12` [8-hydroxy genistein], the “water solubility relative to aglyconic form of isoflavones” value in series [1] is “higher water solubility”.
A word on the solubility: it is the dissolved amount per volume that the medium holds. For the molecule `O=c1c(-c2ccc(O)cc2)coc2cc(O)ccc12` [Daidzein, daidzein], in series [1], the solubility is 8.2 µg/mL (≈ 32.3 µM) and the “solubility in water (in words)” value is on record as “practically insoluble in water”. In series [2] (25 °C, water), this molecule returned a solubility of 1.36 µg/mL (≈ 5.35 µM).
As for `O=c1c(-c2ccc(O)cc2)coc2cc(OP(=O)(O)O)ccc12` [Daidzein-7-O-phosphate, daidzein-7-O-phosphate], the “solubility relative to genistein and daidzein” value in series [2] is listed as “ten million times higher”. For the same molecule, the solubility in series [2] (setting [3]) amounted to 179000 µg/mL (≈ 536000 µM). Besides, in series [2] (DI water, 25° C.), the Solubility enhancement ratio is reported as 1.3 × 10^5.
On to `O=c1c(-c2ccc(O)cc2)coc2cc(O)cc(O)c12` [Genistein, genistein], for which the solubility was 0.8 µg/mL (≈ 2.96 µM) in series [1] and 0.82 µg/mL (≈ 3.03 µM) in series [2] (setting [3]). Further, the “solubility in water (in words)” value in series [1] is listed as “practically insoluble in water”.
In the case of `O=c1c(-c2ccc(O)cc2)coc2cc(OP(=O)(O)O)cc(O)c12` [Genistein-7-O-phosphate, genistein-7-O-phosphate], the “solubility relative to genistein and daidzein” value in series [2] is “ten million times higher”. Also, the solubility in series [2] (setting [3]) came to 100000 µg/mL (≈ 286000 µM). Also, the Solubility enhancement ratio in series [2] (DI water, 25° C.) was 1.2 × 10^5.
Take `O=c1c(O)c(-c2ccc(O)cc2)oc2cc(O)cc(O)c12` [Kaempferol, kaempferol]: the “solubility in water (in words)” value in series [1] is recorded as “barely insoluble in water”.
Take `O=C1C[C@@H](c2ccc(O)cc2)Oc2cc(O)cc(O)c21` [Naringenin, naringenin]: in series [1], the solubility is 45 µg/mL (≈ 165 µM).
In the case of `O=c1c(-c2ccc(O)cc2)coc2cc(OS(=O)(=O)O)ccc12` [daidzein-7-O-sulfate], in series [1], the “water solubility relative to aglyconic form of isoflavones” value is “higher water solubility”.
For `COc1ccc([C@@H]2CC(=O)c3c(O)cc(O)cc3O2)cc1O` [hesperetin], the solubility in series [1] was 1.4 µg/mL (≈ 4.63 µM).
Regarding `O=c1c(O)c(-c2ccc(O)c(O)c2)oc2cc(O)cc(O)c12` [quercetin], the “solubility in water (in words)” value in series [1] is on record as “barely insoluble in water”.
